Results taken from patent publication US10695406B2, “Modulation of cellular stress using a B-cell oxidative and/or endoplasmic reticulum stress inhibitor and a targeting agent” (THE UNIVERSITY OF QUEENSLAND, priority 2014, dated 2020).

Experiments:
[1] = system: mice with high fat diet-induced obesity (HFDIO); assay: HFDIO Experiment 1: high fat diet induced obesity, treated last 3 weeks of 16; assay type: in vivo, C57BL/6 male mice
From the text: (§1) All mice were housed in sterilized, filter-topped cages in a conventional clean facility. Six to eight week old C57BL/6 male mice were fed ad libitum on a high fat diet containing 46% of available energy as saturated fat, 34% carbohydrate, 20% protein (Speciality feeds, SF04-027). Or on normal chow containing less than 10% saturated fat (GOLDMIX, 126575). Cages of mice were randomly allocated to the experimental groups by random draw. Investigators were not blinded to treatment by there were no subjective assessments made.
(§2) Total insulin and proinsulin were measured in supernatant from islet cultures or in serum from mice using commercially obtained ELISA kits from MILLIPORE and MERCODIA, respectively. The molar insulin concentration was determined by subtracting the molar proinsulin concentration from molar total insulin, and then the serum proinsulin:insulin ratio was calculated.
From […] of the diet, mice were treated with 20 ng/g i.p. recombinant murine IL-22 twice weekly (R&D SYSTEMS), 3 μg/g anti-IL-23 weekly (ELI-LILLY), 0.1 mg/mouse anti-IL-24 weekly (PROTEIN TECH), or 0.5 mg/mouse irrelevant isotype control antibody, sacrificed and sampled.
Fasted i.p. glucose tolerance tests (2 g/kg glucose) and insulin tolerance tests (0.25 U/kg insulin; Humalog, Lilly) were performed at the times indicated in the Figure Legends.
Pancreatic tissue was fixed in 10% neutral buffered formalin and processed using standard histological techniques. Standard immunohistochemical and immunofluorescent staining methods were used to determine the presence of Grp78, insulin, glucagon, IL-22R1, proinsulin and ATF6-GFP.
The area in pixels/mm^2 was determined for Grp78 and insulin (immunofluorescence) and proinsulin (immunohistochemisty) in the core of β-cell rich area of 3-4 islets per mouse (n=6-10 mice) using IMAGEJ software version 1.45s. Live cell imagine in MIN6N8 cells was carries out at 37° C. in 5% CO2 in a chamber using an OLYMPUS XCELLENCE RT microscope.

MIN6N8 cells = assay: Oxidative stress gene expression (RT2 Profiler PCR array, qRT-PCR) in MIN6N8 cells; assay type: cell-based, murine; conditions: non-stressed β-cells, 50 ng/mL
Method: Tissue samples were snap-frozen, and homogenized in TRIZOL using FASTPREP (MP BIOMEDICAL). RNA was isolated using High Pure RNA isolation kit (ROCHE), followed by cDNA synthesis using iScript (BIORAD) containing oligo(dT) and random hexamers. QPCR SYBR Green (INVITROGEN) was used for quantitative PCR using a HT7900 (ABI SYSTEMS). RoX was used as a normalization reference. Results were analyzed using SDS software (version 2.3) (ABI SYSTEMS). Primer efficiencies were determined using cDNA dilutions and primer dilutions for the genes of interest. All the data was normalized against the housekeeping gene, Gapdh, and expressed as a fold difference to the mean of relevant control samples.
cDNA from MIN6N8 cells treated with DMSO or 50 ng/mL IL-22 was compared using the oxidative stress RT^2 Profiler PCR Array (QIAGEN, PAMM-065Z). Data were analyzed using RT^2 Profiler PCR Array data analysis software.
Experiments to assess ER and/or oxidative stress, and methods of qRT-PCT and/or quantifying gene expression were performed as described for Example 1. Xbp1 splicing is assessed by qRT-PCR, with normalization versus Gapdh, and expression presented as fold of vehicle-treated control cells.

human pancreatic islets = assay: Oxidative stress (ROS, NO) in cultured human pancreatic islets; assay type: cell-based; conditions: 50 ng/mL, 30 min prior exposure, 2 hours culture
Method: Human islets were recovered from organ donors and placed into overnight culture in DMEM with 2.8 mM glucose and 10% FCS. Islets were then washed and transferred into serum free DMEM for 6 h prior to experiments to assess induction of oxidative stress. Islets were then cultured for 2-24 hours in the presence of 50 ng/mL of IFNγ, IL-1β, IL-23 or IL-24, or the free fatty acid palmitate at 0.5 mM, with or without exposure to 50 ng/mL IL-22 beginning 30 min prior to the introduction of the stress inducing cytokines or lipids. To test whether endogenous IL-22 affects human islet physiology the islets were treated for 2-24 hours with an anti-IL-22R1 (receptor) antibody at 10 μg/mL. ROS and nitrite were measured using the DCFDA and Greiss assays as described above for murine islets, and quantitative RT-PCR used to assess gene expression.

murine islets = assay: Murine islets ex vivo: ER stress, gene expression, insulin and proinsulin secretion; assay type: cell-based, mice
Method: Healthy islets were cultured with 10 μg/mL tunicamycin or 5 μM thapsigargin±IL-22 for 6 hours. Alternatively the islets were cultured in the presence of ER stress-inducing cytokines±IL-22 for 24 hours. The cultures were then cultured consecutively for 30 minutes in 2.8 mM glucose, 20 mM glucose, or a combination of 20 mM glucose and 100 nM GLP-1.
as §1, §2

3T3 adipocytes = assay: 6-NBDG glucose uptake by 3T3 adipocytes with insulin secreted by islets; assay type: cell-based; conditions: insulin secreted by islets from HFD mice treated with 100 ng/g
Method: 3T3 cells were differentiated into adipocytes as previously described, and all experiments were carried out on day 8 post differentiation. 1×10^4 cells were seeded in a black 96-well plate and cultured in serum free 2.8 mM glucose media prior to the addition of insulin. Cells were treated for 1 h with 2 ng/mL recombinant insulin or total insulin from islet secretions at 37° C. as described in figure legends. Subsequently, cells were incubated with 6-(N-(7-nitrobenx-2-oxa-1,3-diazol-4-yl)amino)-6-deoxyglucose (6-NBDG) (MOLECULAR PROBES) for 20 min before cells were washed with PBS and glucose uptake was determined using a POLARstar Omega plate reader.

[2] = HFDIO Experiment 1, 16 weeks on HFD
[3] = HFDIO Experiment 1, 16 weeks on NCD
[4] = healthy islets, co-treatment with ER stress agents

IL-22: interleukin-22; recombinant murine IL-22 (R&D SYSTEMS) in the mouse experiments
body weight during treatment ([1]; HFD): progressively lost weight during treatment without changing food consumption | hepatic Hspa5 mRNA ([1]; HFD, after 3 weeks treatment): decreased substantially | fasted serum proinsulin:insulin ratio ([1]; HFD, end of treatment): decreased the fasted serum proinsulin:insulin ratio | reduction of serum proinsulin ([1]; HFD, fasted, end of treatment): 92% | decrease of islet proinsulin ([1]; HFD, immunostaining): 64% | reduction of Grp78 in the β-cell region of islets ([1]; HFD, immunostaining): 75% | β-cell insulin stores ([1]; HFD, immunostaining): returned to levels in non-obese mice | reduction of the increase in IPGTT area under the curve (AUC glucose) ([1]; HFD, two weeks of treatment): 82% | Body weight (% original) [1, 2]: 129 ± 9 % original | Fasting blood glucose [1, 2]: 8.8 ± 0.9 mmol/L | Fasting serum insulin concentration [1, 2]: 1.1 ± 0.5 ng/mL | Fasting serum proinsulin concentration [1, 2]: 9.5 ± 3.8 pmol/L | Body weight (% original) [1, 3]: 118 ± 3 % original | Fasting blood glucose [1, 3]: 8.9 ± 0.8 mmol/L | Fasting serum insulin concentration [1, 3]: 0.5 ± 0.1 ng/mL | Fasting serum proinsulin concentration [1, 3]: Not detectable | expression of antioxidant genes Gpx5, Prdx5, Sod2 (also Ptgs1, Ptgs2, Cyba) (MIN6N8 cells): upregulated the antioxidant genes | expression of oxidative stress inducing genes Nos2, Hsp90ab1, Fth1 (MIN6N8 cells): down-regulates three key oxidative stress inducing genes | production of ROS and NO induced by IFN-γ, IL-1β, IL-23, IL-24 and palmitate (human pancreatic islets): protected human islets from the production of ROS and NO | MIP2α mRNA (murine islets; HFDIO islets cultured 24 h in 2.8 mM glucose ± 50 ng/mL IL-22): reduced substantially | acute islet ER stress (Xbp1-splicing, Hspa5 mRNA) (murine islets; [4]): suppresses the acute islet oxidative stress-driven ER stress | glucose and glucose plus GLP-1 stimulated insulin secretion (murine islets; [4]): restores appropriate glucose and glucose plus GLP-1 stimulated insulin secretion | proinsulin secretion (murine islets; islets from HFDIO mice): proinsulin secretion ceased | insulin hyper-secretion (GSIS) (murine islets; islets from HFDIO mice, after culture): returned to levels in non-obese islets | ER stress, antioxidant gene expression and Nos2 (murine islets; islets from HFDIO mice, culture 24 hours): reduced ER stress, increased antioxidant gene expression and decreased Nos2 | reduction in adipocyte 6-NBDG uptake vs insulin from islets of normal chow fed mice (3T3 adipocytes): 11%
